{"source": "BindingDB's records for doi:10.7270/Q2639NCQ", "about": "(The Scripps Research Institute Molecular Screening Center, 2013)"}
{"biological_target": "T1, Mitochondrial peptide methionine sulfoxide reductase (Bos taurus, UniProt P54149)", "T1 sequence (P54149 whole entry)": "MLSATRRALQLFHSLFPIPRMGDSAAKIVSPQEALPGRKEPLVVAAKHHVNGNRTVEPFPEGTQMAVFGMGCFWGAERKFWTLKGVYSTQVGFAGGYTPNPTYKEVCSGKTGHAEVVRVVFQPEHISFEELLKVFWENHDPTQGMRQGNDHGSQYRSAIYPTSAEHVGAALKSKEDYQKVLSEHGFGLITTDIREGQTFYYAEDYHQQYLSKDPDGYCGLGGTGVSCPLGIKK", "units": {"IC50": "µM"}}
{"molecule": "COc1ccc2nc(C)cc(N=NCc3ccc(F)cc3)c2c1", "note": "[N-[(4-fluorophenyl)methylideneamino]-6-methoxy-2-methyl-4-quinolinamine]", "IC50": 12.8}
{"molecule": "N#Cc1c(-n2cccc2C=O)sc2c1CCCC2", "note": "[2-(2-methanoylpyrrol-1-yl)-4,5,6,7-tetrahydro-1-benzothiophene-3-carbonitrile]", "IC50": "> 155"}
{"molecule": "Cc1ccccc1Nc1c(N)c(=O)oc2ccccc12", "note": "[MLS000563389]", "IC50": "> 155"}
{"molecule": "CCOP(=O)(CCP(=O)(OCC)OCC)OCC", "note": "[MLS002702923]", "IC50": 11}
{"molecule": "Cc1ccc(NS(=O)(=O)c2ccc3c(c2)C(=O)c2ccccc2C3=O)c(C)c1", "note": "[SMR000207645]", "IC50": "> 155"}
{"molecule": "Cc1ccc(Nc2[nH]nc(C)c2[N+](=O)[O-])c(C)c1", "note": "[MLS000700556]", "IC50": "> 155"}
{"molecule": "CC(Nc1cc(N2CCOCC2)ccc1[N+](=O)[O-])c1ccccc1", "note": "(centres undefined) [MLS000573605]", "IC50": "> 155"}
{"molecule": "O=C(O)Cc1sc(N=NC=CCc2ccccc2)nc1O", "note": "[2-[4-oxo-2-[(2E)-2-[(E)-3-phenylprop-2-enylidene]hydrazinyl]-1,3-thiazol-5-yl]acetic acid]", "IC50": 97.5}
{"molecule": "O=c1oc2ccccc2c2c1cnc1ccccc12", "note": "[MLS000518195]", "IC50": "> 155"}
{"molecule": "CCOC(=O)N/N=C1/c2ccccc2-c2nc3nonc3nc21", "note": "[SMR000305141]", "IC50": "> 155"}
{"molecule": "COC(=O)CN(c1nc(C)c(Br)c(OC)n1)S(=O)(=O)c1ccccc1", "note": "[[Benzenesulfonyl-(5-bromo-4-methoxy-6-methyl-pyrimidin-2-yl)-amino]-acetic acid methyl ester]", "IC50": "> 155"}
{"molecule": "O=C(c1ccccc1)c1coc2c1C(=O)c1ccccc1C2=O", "note": "[3-benzoylbenzo[f]benzofuran-4,9-dione]", "IC50": "> 155"}
{"molecule": "COc1ccc(C=NNC(=O)C(C=Nc2nccc(C)n2)NC(=O)c2ccccc2)cc1", "note": "(centres undefined) [N-[(E)-3-[(2Z)-2-[(4-methoxyphenyl)methylidene]hydrazinyl]-1-[(4-methylpyrimidin-2-yl)amino]-3-oxidanylidene-prop-1-en-2-yl]benzamide]", "IC50": 149}
{"molecule": "NC(=O)c1ccc(Nc2ccc3c(c2)CCC3)c([N+](=O)[O-])c1", "note": "[4-(2,3-dihydro-1H-inden-5-ylamino)-3-nitro-benzamide]", "IC50": "> 155"}
{"molecule": "COc1ccc(-c2cc(=O)oc3c(C)c(OC(C)C(C)=O)ccc23)cc1", "note": "(centres undefined) [4-(4-methoxyphenyl)-8-methyl-7-(3-oxobutan-2-yloxy)-1-benzopyran-2-one]", "IC50": "> 155"}
{"molecule": "Cc1ccccc1-n1c(SCc2cccc(F)c2)nc2[nH]ncc2c1=O", "note": "[6-[(3-fluorobenzyl)thio]-5-(2-methylphenyl)-2,5-dihydro-4H-pyrazolo[3,4-d]pyrimidin-4-one]", "IC50": "> 155"}
{"molecule": "COC(=O)c1ccccc1NC(=S)NC(=O)C1CC1", "note": "[methyl 2-({[(cyclopropylcarbonyl)amino]carbothioyl}amino)benzoate]", "IC50": "> 155"}
{"molecule": "COc1cccc(Nc2nc3ccccc3n3nnnc23)c1", "note": "[N-(3-methoxyphenyl)-[1,2,3,4]tetrazolo[1,5-a]quinoxalin-4-amine]", "IC50": "> 155"}
{"molecule": "COC(=O)/C(=C1/Oc2ccc(C)cc2S1)C(F)(F)F", "note": "[methyl (2E)-3,3,3-trifluoro-2-(5-methyl-1,3-benzoxathiol-2-ylidene)propanoate]", "IC50": "> 155"}
{"molecule": "CCC(C)c1ccccc1NC(=O)COC(=O)C1=NN(c2ccccc2)C(=O)CC1", "note": "(centres undefined) [6-oxo-1-phenyl-4,5-dihydropyridazine-3-carboxylic acid [2-(2-butan-2-ylanilino)-2-oxoethyl] ester]", "IC50": "> 155"}
{"molecule": "O=Cc1cn(-c2ccccc2)nc1-c1ccc(F)cc1", "note": "[3-(4-fluorophenyl)-1-phenyl-1H-pyrazole-4-carbaldehyde]", "IC50": "> 155"}
{"molecule": "CCOC(=O)c1cc2c(ccc3ccccc32)oc1=O", "note": "[3-oxo-2-benzo[f][1]benzopyrancarboxylic acid ethyl ester]", "IC50": "> 155"}
{"molecule": "Cc1ccc(Nc2[nH]nc(C)c2[N+](=O)[O-])cc1C", "note": "[(3,4-Dimethyl-phenyl)-(5-methyl-4-nitro-2H-pyrazol-3-yl)-amine]", "IC50": "> 155"}
{"molecule": "COc1ccc(NC(=O)COC(=O)C2CCCCC2)c([N+](=O)[O-])c1", "note": "[SMR000261453]", "IC50": "> 155"}
{"molecule": "Cc1ccc(/C=C/C(=O)Nc2nccs2)o1", "note": "[SMR000261703]", "IC50": "> 155"}
{"molecule": "CN(C)CCCN1C(=O)c2cccc3c([N+](=O)[O-])ccc(c23)C1=O", "note": "[2-[3-(dimethylamino)propyl]-6-nitro-1H-benzo[de]isoquinoline-1,3(2H)-dione]", "IC50": "> 155"}
{"molecule": "O=[N+]([O-])c1cnc(Nc2ccc(Cl)cn2)c([N+](=O)[O-])c1", "IC50": "> 155"}
{"molecule": "CC(Nc1ccc([N+](=O)[O-])cc1[N+](=O)[O-])c1ccccc1", "note": "(centres undefined)", "IC50": "> 155"}
{"molecule": "COc1ccc(/C=N/N2C(=O)C3C4C=CC(C4)C3C2=O)cc1[N+](=O)[O-]", "note": "(centres undefined) [SMR000283338]", "IC50": "> 155"}
{"molecule": "CN(c1ccccc1)S(=O)(=O)c1ccc2[nH]c(O)nc2c1", "note": "[N-methyl-2-oxidanylidene-N-phenyl-1,3-dihydrobenzimidazole-5-sulfonamide]", "IC50": "> 155"}
{"molecule": "CCOC(=O)C1CCCN(C(=O)c2cnn3c(C(F)F)cc(-c4ccc(C)cc4)nc23)C1", "note": "(centres undefined) [1-[7-(difluoromethyl)-5-(p-tolyl)pyrazolo[1,5-a]pyrimidine-3-carbonyl]nipecotic acid ethyl ester]", "IC50": "> 155"}
{"molecule": "CCN(CC)c1ccc(/C=N/NC(=O)CNC(=O)/C=C/c2ccco2)cc1", "note": "[MLS000912185]", "IC50": "> 155"}
{"molecule": "COc1cccc(C2=Nc3nnnn3C(c3cccc(OC)c3OC)C2)c1", "note": "(centres undefined)", "IC50": "> 155"}
{"molecule": "CCN(c1ccccc1)c1nc2nonc2nc1NCCO", "note": "[2-[6-(Ethyl-phenyl-amino)-[1,2,5]oxadiazolo[3,4-b]pyrazin-5-ylamino]-ethanol]", "IC50": "> 155"}
{"molecule": "O=C(O)c1cccc(NS(=O)(=O)c2ccc3c(c2)C(=O)c2ccccc2C3=O)c1", "note": "[3-[[9,10-bis(oxidanylidene)anthracen-2-yl]sulfonylamino]benzoic acid]", "IC50": "> 155"}
{"molecule": "O=C(COC(=O)C1=NN(c2ccccc2)C(=O)CC1)Nc1ccc([N+](=O)[O-])cc1C(F)(F)F", "note": "[SMR001244149]", "IC50": "> 155"}
{"molecule": "CCOc1ccc(N(C)S(=O)(=O)c2cc(-c3cc(C)no3)ccc2CC)cc1", "note": "[N-(4-ethoxyphenyl)-2-ethyl-N-methyl-5-(3-methyl-1,2-oxazol-5-yl)benzenesulfonamide]", "IC50": "> 155"}
{"molecule": "COc1ccc2[nH]c(C(=O)N/N=C/c3ccc(OC)c(O)c3)cc2c1", "note": "[MLS001214387]", "IC50": "> 155"}
{"molecule": "CC(Nc1cc(N2CCN(S(C)(=O)=O)CC2)ccc1[N+](=O)[O-])c1ccccc1", "note": "(centres undefined) [5-[4-(methylsulfonyl)-1-piperazinyl]-2-nitro-N-(1-phenylethyl)aniline]", "IC50": "> 155"}
{"molecule": "COC(=O)COc1ccc2oc(=O)cc(-c3cc4ccccc4o3)c2c1", "note": "[MLS001167555]", "IC50": "> 155"}
{"molecule": "COc1ccccc1-c1cc(C(F)(F)F)nc(N2CCOCC2)n1", "IC50": "> 155"}
{"molecule": "CNS(=O)(=O)c1cccc(C(=O)OCC(=O)c2cc3ccccc3o2)c1", "note": "[SMR000364126]", "IC50": "> 155"}
{"molecule": "Cc1nn2c(=O)cc(CSc3ccccc3NC(=O)c3ccccc3)nc2s1", "note": "[N-[2-[(2-methyl-5-oxo-[1,3,4]thiadiazolo[3,2-a]pyrimidin-7-yl)methylsulfanyl]phenyl]benzamide]", "IC50": "> 155"}
{"molecule": "COC(=O)COc1ccc2oc(=O)cc(-c3cc4cccc(OC)c4o3)c2c1", "note": "[MLS001167553]", "IC50": "> 155"}
{"molecule": "COc1ccc(Nc2ccc(C(F)(F)F)cc2[N+](=O)[O-])cn1", "note": "[SMR000688981]", "IC50": "> 155"}
{"molecule": "CSc1nc2nc3c(c-2c2nn[nH]n12)CCCC3", "note": "[MLS000071223]", "IC50": "> 155"}
{"molecule": "CC(N=Nc1ccc(C#N)cc1[N+](=O)[O-])C1C=CC(=O)C=C1", "note": "(centres undefined) [3-nitro-4-[2-[1-(4-oxidanylidenecyclohexa-2,5-dien-1-ylidene)ethyl]hydrazinyl]benzenecarbonitrile]", "IC50": "> 155"}
{"molecule": "Nc1ccccc1Nc1ccc([N+](=O)[O-])cc1[N+](=O)[O-]", "note": "[N~1~-(2,4-dinitrophenyl)-1,2-benzenediamine]", "IC50": "> 155"}
{"molecule": "CCOC(=O)C(=CC(C#N)C(=O)OCC)C(=N)N1CCN(c2ccc(OC)cc2)CC1", "note": "(centres undefined)", "IC50": 139}
{"molecule": "Cc1cc(/C=C(/C#N)c2cccc(F)c2)c(C)n1-c1cccnc1", "note": "[3-[2,5-dimethyl-1-(3-pyridinyl)-1H-pyrrol-3-yl]-2-(3-fluorophenyl)acrylonitrile]", "IC50": "> 155"}
{"molecule": "COc1cccc2c1Oc1cc([N+](=O)[O-])cc(N(C)C(C)=O)c1C=C2", "note": "[SMR000559347]", "IC50": "> 155"}
{"molecule": "CSc1nc2sc3c(c2c2nnnn12)CCCC3", "note": "[MLS000071273]", "IC50": "> 155"}
{"molecule": "c1ccc(-n2nnnc2-n2nnc3ccccc32)cc1", "note": "[1-(1-phenyl-1,2,3,4-tetrazol-5-yl)benzotriazole]", "IC50": "> 155"}
{"molecule": "Cc1ccc(C)c(NC(=O)/C(C#N)=C/c2ccc[nH]2)c1", "note": "[SMR000678612]", "IC50": "> 155"}
{"molecule": "Cc1cc(C)c2nc(C(F)(F)F)nc(N3CC(C)OC(C)C3)c2c1", "note": "(centres undefined) [4-(2,6-dimethyl-4-morpholinyl)-6,8-dimethyl-2-(trifluoromethyl)quinazoline]", "IC50": "> 155"}
{"molecule": "CCOC(=O)C1CCN(C(=O)c2c(C)oc3c2C(=O)c2ccccc2C3=O)CC1", "IC50": "> 155"}
{"molecule": "O=C1C(Cl)=C(Nc2ccc3cn[nH]c3c2)C(=O)c2ccccc21", "IC50": "> 155"}
{"molecule": "c1ccc2c(c1)CCCN2c1nc2ccccc2n2cnnc12", "note": "[4-(3,4-dihydro-2H-quinolin-1-yl)-[1,2,4]triazolo[4,3-a]quinoxaline]", "IC50": "> 155"}
{"molecule": "O=Cc1cn(-c2ccccc2)nc1-c1ccc2c(c1)OCCO2", "note": "[3-(2,3-Dihydro-benzo[1,4]dioxin-6-yl)-1-phenyl-1H-pyrazole-4-carbaldehyde]", "IC50": "> 155"}
{"molecule": "O=Cc1c(-c2ccccc2)nc2ccccn12", "note": "[2-phenyl-3-imidazo[1,2-a]pyridinecarboxaldehyde]", "IC50": "> 155"}
{"molecule": "NC(=O)COc1ccc2oc(=O)cc(-c3cc4ccccc4o3)c2c1", "note": "[SMR000641652]", "IC50": "> 155"}
{"molecule": "Cc1ccc(CC2(C)C(=O)Nc3ccc(OC(F)(F)F)cc32)cc1", "note": "(centres undefined) [SMR001453901]", "IC50": "> 155"}
{"molecule": "Cc1ccc(C)n1-n1c(C)nc2scc(-c3cccs3)c2c1=O", "note": "[3-(2,5-dimethyl-1-pyrrolyl)-2-methyl-5-thiophen-2-yl-4-thieno[2,3-d]pyrimidinone]", "IC50": "> 155"}
{"molecule": "Cc1nc2scc(-c3cccs3)c2c(=O)n1-n1cccc1", "note": "[MLS000113688]", "IC50": "> 155"}
